Test results reported in patent publication US11548893B2 (priority 2017, dated 2023).
Like-named read-outs stand apart in the source and are kept apart here.

Experiments:
[1] = tested on: BDBV (mucin-deleted glycoprotein, VSV pseudotype); assay: microbe, parasite or virus in culture; format: cell-based, Bundibugyo ebolavirus; settings: read-out: EC50 Pseudotype Assays BDBV
Ebola Zaire [2] = tested on: Ebola Zaire
[3] = tested on: SUDV (glycoprotein, VSV pseudotype); assay: microbe, parasite or virus in culture; format: cell-based, Sudan ebolavirus; settings: read-out: EC50 Pseudotype Assays SUDV
Sudan Gulu [4] = tested on: Sudan Gulu
[5] = microsomes, 1 h
Ebola Zaire [6] = assay: microbe, parasite or virus in culture; settings: Zaire ebolavirus, HeLa, read-out: Ebola Zaire EC50
Sudan Gulu [7] = assay: organism not typed; settings: HeLa, read-out: Sudan Gulu EC50
[8] = tested on: EBOV (mucin-deleted glycoprotein, VSV pseudotype); assay: microbe, parasite or virus in culture; format: cell-based, Zaire ebolavirus; settings: read-out: EC50 Pseudotype Assays EBOV
Ebola Zaire [9] = assay: microbe, parasite or virus in culture; settings: Zaire ebolavirus, read-out: Ebola Zaire EC90
[10] = microsomes, 1 h; remark: listed apart in the source
[11] = tested on: MARV (full-length glycoprotein, VSV pseudotype); assay: microbe, parasite or virus in culture; format: cell-based, Marburg marburgvirus; settings: read-out: EC50 Pseudotype Assays MARV
Ebola Zaire [12] = tested on: Ebola Zaire; remark: listed apart in the source
[13] = microsomes, 1 h; remark: listed apart in the source
in vitro [14] = settings: African green monkey, Cytotox CC50
[15] = tested on: EBOV_FL: full-length Ebola Zaire GP (VSV pseudotype); assay: microbe, parasite or virus in culture; format: cell-based, Zaire ebolavirus; settings: read-out: EC50 Pseudotype Assays EBOV_FL
[16] = microsomes, 1 h; remark: listed apart in the source
Vero cells = settings: African green monkey
[17] = in vivo, po, 150 mg/kg; cited from earlier work
in vitro [18] = settings: African green monkey
Ebola virus infection = settings: human, in vivo; cited from earlier work
native EBOV virus = settings: read-out: published EC50 against native EBOV virus; cited from earlier work
EBOV (Mayinga) = assay: microbe, parasite or virus in culture; format: cell-based, Ebola virus; settings: for EC50: Zaire ebolavirus, Vero
[19] = human, in vivo; cited from earlier work
Ebola Zaire [20] = assay: microbe, parasite or virus in culture; settings: Zaire ebolavirus, read-out: Ebola Zaire EC50
physchem = settings: pH 7, kinetic from dmso stock
Cyp-p450 2C19 = Cyp-p450 2C19 (Homo sapiens, UniProt P33261)
[21] = tested on: VSV (native full-length glycoprotein); assay: microbe, parasite or virus in culture; format: cell-based; settings: Vesicular stomatitis virus, Vero, read-out: EC50 Pseudotype Assays VSV
in vivo = settings: male, CD-1, mouse
[22] = pH 7
in vitro [23] = settings: human
Cyp-p450 1A2 = Cyp-p450 1A2 (Homo sapiens, UniProt P05177)
in vitro [24] = settings: human, Caco-2
Cyp-p450 3A4 = Cyp-p450 3A4 (Homo sapiens, UniProt P08684)
Cyp-p450 2D6 = Cyp-p450 2D6 (Homo sapiens, UniProt P10635)
Cyp-p450 2B6 = Cyp-p450 2B6 (Homo sapiens, UniProt P20813)
in vitro [25] = settings: mouse
Cyp-p450 2C9 = Cyp-p450 2C9 (Homo sapiens, UniProt P11712)
hERG ion channel = hERG ion channel (Homo sapiens, UniProt Q12809); assay: biochemical
P-gp = P-gp (Homo sapiens, UniProt P08183)
[26] = mouse, in vivo
[27] = Vesicular stomatitis virus, Vero, 24 h

P-gp, sequence (P08183 whole entry): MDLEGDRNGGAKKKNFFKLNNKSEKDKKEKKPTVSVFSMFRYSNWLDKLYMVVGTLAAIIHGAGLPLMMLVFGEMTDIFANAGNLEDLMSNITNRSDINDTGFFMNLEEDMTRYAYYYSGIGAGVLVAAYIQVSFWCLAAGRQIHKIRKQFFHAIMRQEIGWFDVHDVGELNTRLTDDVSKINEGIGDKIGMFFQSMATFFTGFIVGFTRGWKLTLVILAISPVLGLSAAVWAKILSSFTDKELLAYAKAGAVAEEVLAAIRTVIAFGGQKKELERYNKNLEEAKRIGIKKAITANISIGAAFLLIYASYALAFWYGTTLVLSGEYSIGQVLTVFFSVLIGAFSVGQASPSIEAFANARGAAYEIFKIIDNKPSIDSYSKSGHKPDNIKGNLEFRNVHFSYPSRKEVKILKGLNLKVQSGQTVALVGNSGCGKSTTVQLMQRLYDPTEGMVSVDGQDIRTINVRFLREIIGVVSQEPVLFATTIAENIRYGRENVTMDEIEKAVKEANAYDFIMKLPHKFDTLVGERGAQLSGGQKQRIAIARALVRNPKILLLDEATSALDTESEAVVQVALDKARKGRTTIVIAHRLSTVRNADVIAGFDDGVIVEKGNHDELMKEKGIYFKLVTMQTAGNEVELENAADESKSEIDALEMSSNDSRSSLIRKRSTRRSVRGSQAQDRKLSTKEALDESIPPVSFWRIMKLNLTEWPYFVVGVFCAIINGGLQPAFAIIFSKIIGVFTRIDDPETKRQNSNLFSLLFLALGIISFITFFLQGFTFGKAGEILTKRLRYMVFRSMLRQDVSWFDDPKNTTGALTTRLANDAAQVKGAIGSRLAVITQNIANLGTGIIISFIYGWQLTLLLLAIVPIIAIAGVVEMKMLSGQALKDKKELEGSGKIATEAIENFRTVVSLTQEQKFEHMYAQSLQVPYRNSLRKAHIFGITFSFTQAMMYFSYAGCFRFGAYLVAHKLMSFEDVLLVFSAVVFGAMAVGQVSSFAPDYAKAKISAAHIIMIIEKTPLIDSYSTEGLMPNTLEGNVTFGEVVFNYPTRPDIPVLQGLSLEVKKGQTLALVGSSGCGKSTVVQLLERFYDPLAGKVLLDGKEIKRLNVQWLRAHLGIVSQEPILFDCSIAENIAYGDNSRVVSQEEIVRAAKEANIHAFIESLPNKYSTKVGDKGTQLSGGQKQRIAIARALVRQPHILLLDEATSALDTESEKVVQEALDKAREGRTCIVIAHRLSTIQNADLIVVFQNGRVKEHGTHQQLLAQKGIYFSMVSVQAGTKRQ
Cyp-p450 3A4, sequence (P08684 whole entry): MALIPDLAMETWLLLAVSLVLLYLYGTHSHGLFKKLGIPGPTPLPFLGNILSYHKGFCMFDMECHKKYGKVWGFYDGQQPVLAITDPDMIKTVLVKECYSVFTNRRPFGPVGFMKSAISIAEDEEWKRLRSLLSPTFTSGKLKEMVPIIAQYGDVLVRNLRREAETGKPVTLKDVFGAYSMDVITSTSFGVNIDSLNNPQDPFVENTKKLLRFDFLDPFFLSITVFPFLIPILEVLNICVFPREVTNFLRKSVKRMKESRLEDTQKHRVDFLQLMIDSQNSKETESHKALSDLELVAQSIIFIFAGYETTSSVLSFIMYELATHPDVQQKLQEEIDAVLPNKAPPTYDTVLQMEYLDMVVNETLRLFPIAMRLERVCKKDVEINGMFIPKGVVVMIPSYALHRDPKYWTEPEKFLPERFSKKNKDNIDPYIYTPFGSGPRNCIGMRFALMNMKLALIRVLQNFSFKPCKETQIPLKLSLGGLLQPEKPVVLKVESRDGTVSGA
hERG ion channel, sequence (Q12809 whole entry): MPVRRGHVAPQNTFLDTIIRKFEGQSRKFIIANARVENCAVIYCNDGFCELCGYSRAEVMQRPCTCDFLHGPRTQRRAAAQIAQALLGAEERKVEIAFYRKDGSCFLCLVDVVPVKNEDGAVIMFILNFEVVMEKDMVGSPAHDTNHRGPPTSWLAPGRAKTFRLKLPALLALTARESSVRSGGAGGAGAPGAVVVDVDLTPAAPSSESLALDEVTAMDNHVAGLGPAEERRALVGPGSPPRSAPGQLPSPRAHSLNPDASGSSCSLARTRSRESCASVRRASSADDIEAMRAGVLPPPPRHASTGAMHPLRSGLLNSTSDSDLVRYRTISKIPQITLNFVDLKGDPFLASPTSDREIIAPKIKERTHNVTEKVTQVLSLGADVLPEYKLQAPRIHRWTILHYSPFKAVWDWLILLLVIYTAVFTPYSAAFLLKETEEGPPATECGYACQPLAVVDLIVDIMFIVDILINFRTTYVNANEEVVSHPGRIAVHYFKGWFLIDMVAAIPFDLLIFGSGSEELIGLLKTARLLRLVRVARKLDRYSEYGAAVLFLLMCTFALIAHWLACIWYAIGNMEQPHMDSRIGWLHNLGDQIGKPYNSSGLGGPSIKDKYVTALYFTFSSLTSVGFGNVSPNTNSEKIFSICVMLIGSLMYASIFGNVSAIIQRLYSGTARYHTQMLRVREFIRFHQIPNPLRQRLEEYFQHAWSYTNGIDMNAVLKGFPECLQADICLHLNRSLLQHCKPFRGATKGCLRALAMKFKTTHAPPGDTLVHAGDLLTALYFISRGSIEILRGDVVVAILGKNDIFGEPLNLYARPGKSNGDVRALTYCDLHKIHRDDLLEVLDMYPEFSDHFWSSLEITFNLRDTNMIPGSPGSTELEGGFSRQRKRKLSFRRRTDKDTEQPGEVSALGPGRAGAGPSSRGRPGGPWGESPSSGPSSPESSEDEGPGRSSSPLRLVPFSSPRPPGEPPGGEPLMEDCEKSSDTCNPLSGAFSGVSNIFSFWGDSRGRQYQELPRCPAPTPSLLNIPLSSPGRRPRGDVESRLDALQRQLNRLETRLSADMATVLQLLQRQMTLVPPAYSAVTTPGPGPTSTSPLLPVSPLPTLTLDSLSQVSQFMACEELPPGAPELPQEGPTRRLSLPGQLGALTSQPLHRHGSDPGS
Cyp-p450 1A2, sequence (P05177 whole entry): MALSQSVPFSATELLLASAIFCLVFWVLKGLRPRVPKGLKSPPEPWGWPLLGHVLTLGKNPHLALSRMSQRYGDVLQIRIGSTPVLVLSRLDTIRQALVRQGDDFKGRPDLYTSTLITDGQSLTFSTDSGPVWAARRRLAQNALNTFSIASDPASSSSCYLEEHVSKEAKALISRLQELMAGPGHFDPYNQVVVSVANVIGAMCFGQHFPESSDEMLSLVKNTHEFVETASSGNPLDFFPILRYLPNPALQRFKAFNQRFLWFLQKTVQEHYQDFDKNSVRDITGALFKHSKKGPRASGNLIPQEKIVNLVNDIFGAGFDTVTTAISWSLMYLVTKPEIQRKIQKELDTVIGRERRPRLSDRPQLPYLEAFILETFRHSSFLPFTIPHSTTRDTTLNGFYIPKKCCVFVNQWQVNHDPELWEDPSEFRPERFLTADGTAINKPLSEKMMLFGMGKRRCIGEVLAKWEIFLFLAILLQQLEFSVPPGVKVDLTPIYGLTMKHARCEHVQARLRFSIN
Cyp-p450 2D6, sequence (P10635 whole entry): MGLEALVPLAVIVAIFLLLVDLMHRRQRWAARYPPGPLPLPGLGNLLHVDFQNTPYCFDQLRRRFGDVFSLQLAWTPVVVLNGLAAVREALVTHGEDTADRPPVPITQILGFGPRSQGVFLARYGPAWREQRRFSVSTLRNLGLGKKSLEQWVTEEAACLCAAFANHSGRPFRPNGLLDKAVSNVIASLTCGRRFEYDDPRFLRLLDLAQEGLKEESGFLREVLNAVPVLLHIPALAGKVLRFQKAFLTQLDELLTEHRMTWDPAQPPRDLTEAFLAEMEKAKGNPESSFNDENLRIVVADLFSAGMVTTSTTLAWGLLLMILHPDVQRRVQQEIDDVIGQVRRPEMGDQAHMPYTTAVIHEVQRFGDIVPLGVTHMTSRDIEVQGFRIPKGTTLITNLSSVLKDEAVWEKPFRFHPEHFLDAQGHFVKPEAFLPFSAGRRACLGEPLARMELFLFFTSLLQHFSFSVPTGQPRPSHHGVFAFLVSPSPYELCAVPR
Cyp-p450 2C9, sequence (P11712 whole entry): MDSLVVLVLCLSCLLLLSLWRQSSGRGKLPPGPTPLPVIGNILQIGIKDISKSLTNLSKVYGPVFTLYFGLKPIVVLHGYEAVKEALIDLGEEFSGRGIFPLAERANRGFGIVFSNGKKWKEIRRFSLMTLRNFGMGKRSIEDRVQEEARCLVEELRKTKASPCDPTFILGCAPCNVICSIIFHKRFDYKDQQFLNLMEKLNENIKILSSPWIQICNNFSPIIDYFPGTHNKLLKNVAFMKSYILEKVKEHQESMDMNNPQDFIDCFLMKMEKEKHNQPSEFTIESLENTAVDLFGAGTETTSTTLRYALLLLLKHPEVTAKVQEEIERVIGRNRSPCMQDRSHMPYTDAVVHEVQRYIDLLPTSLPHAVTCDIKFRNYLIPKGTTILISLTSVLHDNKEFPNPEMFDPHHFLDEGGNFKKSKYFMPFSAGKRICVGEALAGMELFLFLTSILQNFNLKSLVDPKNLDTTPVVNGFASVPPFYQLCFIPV
Cyp-p450 2C19, sequence (P33261 whole entry): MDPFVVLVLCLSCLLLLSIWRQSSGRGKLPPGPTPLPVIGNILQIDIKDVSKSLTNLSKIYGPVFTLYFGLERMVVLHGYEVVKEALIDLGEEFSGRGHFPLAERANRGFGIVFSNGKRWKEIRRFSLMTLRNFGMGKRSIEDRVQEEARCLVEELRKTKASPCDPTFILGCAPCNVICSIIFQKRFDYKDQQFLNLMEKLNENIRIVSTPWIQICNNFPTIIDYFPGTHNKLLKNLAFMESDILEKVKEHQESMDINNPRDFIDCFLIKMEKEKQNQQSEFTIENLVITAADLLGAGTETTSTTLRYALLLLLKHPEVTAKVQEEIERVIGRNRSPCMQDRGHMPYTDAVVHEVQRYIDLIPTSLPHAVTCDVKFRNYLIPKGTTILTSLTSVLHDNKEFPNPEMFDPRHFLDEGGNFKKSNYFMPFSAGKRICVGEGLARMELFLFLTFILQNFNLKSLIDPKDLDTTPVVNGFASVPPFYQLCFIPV

## C[C@H]1C[C@@H](NC(=O)C23CC4C[C@@](C)(C2)C[C@](c2ccccc2)(C4)C3)CCN1 [Example B4]
[1]
  EC50: 0.104 µM
Ebola Zaire [2]
  Ebola Zaire SI (CC50/EC50): 54
[3]
  EC50: 0.166 µM
Sudan Gulu [4]
  Sudan Gulu SI (CC50/EC50): 155
[5]
  Liver Microsome Stability % Remaining after 60 Minutes, Human: 82%
Ebola Zaire [6]
  EC50: 0.62 µM
Sudan Gulu [7]
  EC50: 0.15 µM
[8]
  EC50: 0.013 µM
Ebola Zaire [9]
  EC90: 2.9 µM
[10]
  Liver Microsome Stability % Remaining after 60 Minutes, Mouse: 92%
[11]; [27]
  EC50: > 3 µM
Ebola Zaire [12]
  Ebola Zaire SI (CC50/EC90): >35
[13]
  Liver Microsome Stability % Remaining after 60 Minutes, Monkey: 54%
In vitro [14]
  CC50: 22.5 µM

## CC12CC3CC(C(=O)N4CCC(N)C(C)(C)C4)(C1)CC(c1ccccc1)(C3)C2 (racemic) [Example A35]
[1]; [27]
  EC50: 0.071 µM
Ebola Zaire [2]
  Ebola Zaire SI (CC50/EC50): 29
[15]; Zaire ebolavirus, Vero, 24 h
  EC50: 0.02 µM
[3]; [27]
  EC50: 0.08 µM
Sudan Gulu [4]
  Sudan Gulu SI (CC50/EC50): 136
[5]
  Liver Microsome Stability % Remaining after 60 Minutes, Human: 97%
Ebola Zaire [6]
  EC50: 1.14 µM
Sudan Gulu [7]
  EC50: 0.14 µM
[8]; Zaire ebolavirus, Vero, 24 h
  EC50: 0.01 µM
[16]
  Liver Microsome Stability % Remaining after 60 Minutes, Guinea Pig: 45%
[10]
  Liver Microsome Stability % Remaining after 60 Minutes, Mouse: 42%
[13]
  Liver Microsome Stability % Remaining after 60 Minutes, Monkey: 22%
In vitro [14]
  CC50: 10.2 µM

## CCC12CC3CC(C(=O)N[C@@H]4CCNC[C@H]4F)(C1)CC(c1ccccc1)(C3)C2 (mixture of isomers) [Example A18]
[1]
  EC50: 0.203 µM
[15]
  EC50: 0.03 µM
[3]
  EC50: 0.303 µM
[8]
  EC50: 0.2 µM
Vero cells
  CC50: 9.8 µM
[11]
  EC50: 3.5 µM

## NC(=O)c1nc(F)c[nH]c1=O [favipiravir, reference compound]
[17]
  half-life: 1.8 h
In vitro [18]
  CC50: > 1000 µM
Ebola virus infection
  drop in viral load: 3-4 log
Native EBOV virus
  EC50: 67 µM
EBOV (Mayinga)
  SI50 (CC50/EC50): >59
  EC50: 17 µM
[19]
  half-life in humans: 1 to 4 h

## CCC12CC3CC(C(=O)NC4CCNCC4(C)C)(C1)CC(c1ccccc1)(C3)C2 (racemic) [Example A52]
[1]
  EC50: 0.168 µM
[15]
  EC50: 0.03 µM
[3]
  EC50: 0.4 µM
[8]
  EC50: 0.038 µM
Vero cells
  CC50: 5.7 µM
[11]
  EC50: 1.2 µM

## C[C@]12CC3CC(C(=O)N[C@H]4CN5CCC4CC5)(C1)C[C@@](c1ccccc1)(C3)C2 [Example B58]
[1]; [27]
  EC50: 0.23 µM
In vitro [18]
  CC50: 25.7 µM
[3]; [27]
  EC50: 0.22 µM
Sudan Gulu [4]
  Sudan Gulu SI (CC50/EC50): 157
Ebola Zaire [20]
  EC50: 0.4 µM
Ebola Zaire [6]
  EC50: 0.9 µM
Sudan Gulu [7]
  EC50: 0.15 µM
[8]; Zaire ebolavirus, Vero, 24 h
  EC50: 0.036 µM
EBOV (Mayinga)
  SI50 (CC50/EC50): 64
  EC50: 0.4 µM
Ebola Zaire [9]
  EC90: 4.4 µM
[11]; [27]
  EC50: 1.68 µM
Ebola Zaire [12]
  Ebola Zaire SI (CC50/EC90): 6.5
In vitro [14]
  CC50: 8 µM

## CC12CC3CC(CN4CCC(N)CC4)(C1)CC(c1ccccc1)(C3)C2 (stereo not shown) [Example A69]
[1]; [27]
  EC50: 0.163 µM
Ebola Zaire [2]
  Ebola Zaire SI (CC50/EC50): 16
[3]; [27]
  EC50: 0.29 µM
Sudan Gulu [4]
  Sudan Gulu SI (CC50/EC50): 58
[5]
  Liver Microsome Stability % Remaining after 60 Minutes, Human: 98%
Ebola Zaire [6]
  EC50: 0.44 µM
Sudan Gulu [7]
  EC50: 0.07 µM
[8]; Zaire ebolavirus, Vero, 24 h
  EC50: 0.321 µM
[16]
  Liver Microsome Stability % Remaining after 60 Minutes, Guinea Pig: 65%
[10]
  Liver Microsome Stability % Remaining after 60 Minutes, Mouse: 100%
[11]; [27]
  EC50: 0.95 µM
[13]
  Liver Microsome Stability % Remaining after 60 Minutes, Monkey: 68%
In vitro [14]
  CC50: 2.2 µM

## C[C@@]12CC3CC(C(=O)NC4CCNCC4)(CC(c4ccccc4)(C3)C1)C2 [Example B1]
[1]; [27]
  EC50: 0.238 µM
Ebola Zaire [2]
  Ebola Zaire SI (CC50/EC50): 51
[15]; Zaire ebolavirus, Vero, 24 h
  EC50: 0.01 µM
[3]; [27]
  EC50: 0.25 µM
Sudan Gulu [4]
  Sudan Gulu SI (CC50/EC50): 285
[5]
  Liver Microsome Stability % Remaining after 60 Minutes, Human: 81%
Ebola Zaire [20]
  EC50: > 3.2 µM
Ebola Zaire [6]
  EC50: 0.64 µM
Sudan Gulu [7]
  EC50: 0.12 µM
[8]; Zaire ebolavirus, Vero, 24 h
  EC50: 0.034 µM
Ebola Zaire [9]
  EC90: 2.1 µM
[10]
  Liver Microsome Stability % Remaining after 60 Minutes, Mouse: 87%
[11]; [27]
  EC50: > 3 µM
Ebola Zaire [12]
  Ebola Zaire SI (CC50/EC90): >48
[13]
  Liver Microsome Stability % Remaining after 60 Minutes, Monkey: 83%
In vitro [14]
  CC50: 12.3 µM

## C[C@]12CC3CC(C(=O)N[C@H]4CC[C@H](CN)CC4)(C1)C[C@@](c1ccccc1)(C3)C2 [Example B3]
[1]; [27]
  EC50: 0.114 µM
[15]; Zaire ebolavirus, Vero, 24 h
  EC50: 0.01 µM
[3]; [27]
  EC50: 0.23 µM
Sudan Gulu [4]
  Sudan Gulu SI (CC50/EC50): 119
[5]
  Liver Microsome Stability % Remaining after 60 Minutes, Human: 83%
Ebola Zaire [20]
  EC50: 0.43 µM
Ebola Zaire [6]
  EC50: 0.57 µM
Sudan Gulu [7]
  EC50: 0.12 µM
[8]; Zaire ebolavirus, Vero, 24 h
  EC50: 0.009 µM
Ebola Zaire [9]
  EC90: 0.6 µM
[10]
  Liver Microsome Stability % Remaining after 60 Minutes, Mouse: 27%
[11]; [27]
  EC50: 3.6 µM
Ebola Zaire [12]
  Ebola Zaire SI (CC50/EC90): 23
[13]
  Liver Microsome Stability % Remaining after 60 Minutes, Monkey: 61%
In vitro [14]
  CC50: 6.11 µM

## C[C@H]1C[C@@H](NC(=O)C23CC4C[C@@](C)(C2)C[C@](c2ccccc2)(C4)C3)CCN1 [Example B15]
[1]
  EC50: 0.21 µM
[3]
  EC50: 0.61 µM
[8]
  EC50: 0.035 µM
Vero cells
  CC50: 14.8 µM

## C[C@@]12CC3CC(C(=O)N[C@H]4CC[C@@H](N)CC4)(C1)C[C@](c1ccccc1)(C3)C2 [Example C2]
[1]; [27]
  EC50: 0.252 µM
[15]; Zaire ebolavirus, Vero, 24 h
  EC50: 0.209 µM
In vitro [18]
  CC50: 21.4 µM
[3]; [27]
  EC50: 0.767 µM
[8]; Zaire ebolavirus, Vero, 24 h
  EC50: 0.135 µM
EBOV (Mayinga)
  SI50 (CC50/EC50): 8
  EC50: 2.67 µM
[11]; [27]
  EC50: 8.72 µM
In vitro [14]
  CC50: 25.5 µM

## CC12CC3CC(C(=O)N[C@H]4CC[C@@H](N)CC4)(C1)CC(c1ccccc1)(C3)C2.Cl (mixture of isomers) [Example A2]
physchem
  solubility: > 500 µM
[1]; [27]
  EC50: 0.09 µM
Cyp-p450 2C19
  IC50: > 100 µM
[15]; Zaire ebolavirus, Vero, 24 h
  EC50: 0.024 µM
[21]
  EC50: > 10 µM
In vivo
  Vd: 14 L/kg
  bioavailability: 72%
In vivo; 10 mg/kg
  half-life: 7 h
In vivo; iv, 1 mg/kg
  AUC(0-inf): 561 ng·h/mL
  AUC(0-t): 539 ± 23 ng·h/mL
  Cmax: 129 ± 40 ng/mL
  Tmax: 0.083 h
  Vd: 13.9 L/kg
  clearance: 29.7 mL/min/kg
  half-life: 5.4 h
In vivo; po, 10 mg/kg
  AUC(0-inf): 4040 ng·h/mL
  AUC(0-t): 3590 ± 576 ng·h/mL
  Cmax: 239 ± 46 ng/mL
  Tmax: 6 h
  half-life: 7.1 h
In vitro [18]
  CC50: 66 µM
[22]
  Turbidimetric solubility: >500 µM
In vitro [23]
  fraction unbound: 0.025
Cyp-p450 1A2
  IC50: > 100 µM
In vitro [24]
  Papp A→B: 3.61 ×10⁻⁶ cm/s
  Papp B→A: 15.6 ×10⁻⁶ cm/s
  efflux ratio: 4.32
[3]; [27]
  EC50: 0.27 µM
Cyp-p450 3A4; CYP Inhibition 3A4 (Midazolam)
  IC50: > 100 µM
Cyp-p450 3A4; CYP Inhibition 3A4 (Testosterone)
  IC50: 28 µM
Cyp-p450 2D6
  IC50: > 100 µM
Cyp-p450 2B6
  IC50: > 100 µM
In vitro [25]
  fraction unbound: 0.014
[8]; Zaire ebolavirus, Vero, 24 h
  EC50: 0.02 µM
Cyp-p450 2C9
  IC50: > 100 µM
EBOV (Mayinga)
  SI50 (CC50/EC50): 153
  EC50: 0.43 µM
hERG ion channel
  IC50: > 10 µM
P-gp
  P-gp substrate ID Caco-2 Permeability (+Verapamil) Paap Mean A > B: 8.47 10^−6 cm s^−1
  P-gp substrate ID Caco-2 Permeability (+Verapamil) Paap Mean B > A: 7.45 10^−6 cm s^−1
[11]; [27]
  EC50: 3.1 µM
In vitro [14]
  CC50: 10.1 µM
[26]
  clearance: less than hepatic blood flow
